Results: patent EP2112152A1, “Dihydropteridinones as Plk Inhibitors” (GPC Biotech AG, priority 2008, dated 2009)
Like-named read-outs stand apart in the source and are kept apart here.

What was measured:
[1] = test system: Abl, Akt1, Aur A, c-Kit, c-Raf, Cdk1/CycB, Chk1, FGFR3, Flt3, Fyn, IGF1-R, INSR, Lyn, MAPK-ERK1, p38a, PAK4, PKCalpha, Ret, ROCK2, RSK 1, c-Src, TIE2, and …; assay: Selectivity panel (Proteros), 23 other kinases; type: biochemical; conditions: tested at 1 mM in triplicates; each of the 23 other kinases
Procedure: Selected compound of the present invention were tested in a standard selectivity panel including Plk1 and 23 other kinases (Proteros biostructures GmbH, Martinsried/Munich, Germany), under conditions of non-disclosure, non-dissemination and non-use.
In brief, compounds 1, 13, 14, and 25 (see Table 1) were tested at 1 mM in triplicates against Plk1 as well as against Abl, Akt1, Aur A, c-Kit, c-Raf, Cdk1/CycB, Chk1, FGFR3, Flt3, Fyn, IGF1-R, INSR, Lyn, MAPK-ERK1, p38a, PAK4, PKCalpha, Ret, ROCK2, RSK 1, c-Src, TIE2, and VEGF-R2.

HT-29 = assay: SRB cell proliferation assay, HT-29; type: cell-based; conditions: Homo sapiens
Summary of the method: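 Cells plated 24 h before compound, then exposed 72 h over a concentration range. TCA-fixed, sulforhodamine B-stained, bound dye read at OD520; IC50 derived from % inhibition of proliferation versus DMSO-treated cells.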

A-431 = assay: SRB cell proliferation assay, A-431; type: cell-based; conditions: Homo sapiens, 18-Cell Line Panel, skin
Procedure: (§1) Cells were exposed to the test compounds at various concentrations appropriate to determine an IC50 for 72 hours. Cell proliferation was measured using the SRB assay according to Shekan et al (J Natl Cancer Inst (1990) 82, 1107-112) in order to estimate the IC50 values shown in Table 3. Briefly, cells were plated in 96 well dishes 24 hours prior to compound addition at the densities specified in Table 5.1. The assay was terminated with the addition of cold TCA to a final concentration of 10% after growth medium has been removed and the plates were incubated over night at 4°C. The plates were then washed 5 times with water and 100µl of a Sulforhodamine B solution (4%) was added to each well. The plates were then incubated for 10 minutes at room temperature before removal of unbound dye by washing with 1% acetic acid. The bound dye was solubilised with 10 mM Trizma base and the absorbance read at OD520.
(§2) Table 8.1: 18-Cell Line Panel

A549 = assay: SRB cell proliferation assay, A549; type: cell-based; conditions: Homo sapiens, 18-Cell Line Panel, lung
Procedure: as §1, §2

ACHN = assay: SRB cell proliferation assay, ACHN; type: cell-based; conditions: Homo sapiens, 18-Cell Line Panel, kidney
Procedure: as §1, §2

MDA-MB-468 = assay: SRB cell proliferation assay, MDA-MB-468; type: cell-based; conditions: Homo sapiens, MDA-MB-468; 18-Cell Line Panel; breast
Procedure: as §1, §2

NCI-H460 = assay: SRB cell proliferation assay, NCI-H460; type: cell-based; conditions: Homo sapiens, 18-Cell Line Panel, NSCLC
Procedure: as §1, §2

OVCAR-3 = assay: SRB cell proliferation assay, OVCAR-3; type: cell-based; conditions: Homo sapiens, 18-Cell Line Panel, ovary
Procedure: as §1, §2

SW620 = assay: SRB cell proliferation assay, SW620; type: cell-based; conditions: Homo sapiens, SW-620; 18-Cell Line Panel; colon
Procedure: as §1, §2

A-375 = assay: SRB cell proliferation assay, A-375; type: cell-based; conditions: Homo sapiens, 18-Cell Line Panel, melanoma
Procedure: as §1, §2

MDA-MB-231 = assay: SRB cell proliferation assay, MDA-MB-231; type: cell-based; conditions: Homo sapiens, 18-Cell Line Panel, breast
Procedure: as §1, §2

SK-MEL-5 = assay: SRB cell proliferation assay, SK-MEL-5; type: cell-based; conditions: Homo sapiens, 18-Cell Line Panel, melanoma
Procedure: as §1, §2

COLO 205 = assay: SRB cell proliferation assay, COLO 205; type: cell-based; conditions: Homo sapiens, 18-Cell Line Panel, colon
Procedure: as §1, §2

[2] = HT-29, 18-Cell Line Panel, colon, read-out: IC50 HT-29
[3] = HT-29, 72 h, 72 hours, SRB assay, read-out: CELLULAR IC50 HT-29

SMILES	all other kinases were inhibited [1]	IC50 (HT-29; [2])	IC50 (HT-29; [3])	IC50 (A-431)	IC50 (A549)	IC50 (ACHN)	IC50 (MDA-MB-468)	IC50 (NCI-H460)	IC50 (OVCAR-3)	IC50 (SW620)	IC50 (A-375)	IC50 (MDA-MB-231)	IC50 (SK-MEL-5)	IC50 (COLO 205)
CCC1C(=O)N(C)c2cnc(Nc3ccc(C(=O)N[C@H]4CC[C@H](N5CCN(CC6CC6)CC5)CC4)cc3OC)nc2N1N(C)C (relative stereo) [Compound 13, N-[trans-4-(4-Cyclopropylmethyl-piperazin-1-yl)-cyclohexyl]-4-(8-dimethylamino-7-ethyl-5-methyl-6-oxo-5,6,7,8-tetrahydro-pteridin-2-ylamino)-3-methoxy-benzamide]	less than 10%	< 1000 nM	< 1000 nM	< 1000 nM	< 1000 nM	< 1000 nM	> 1000 nM	< 1000 nM	< 1000 nM	< 1000 nM	< 1000 nM	< 1000 nM	< 1000 nM	< 1000 nM
CCC1C(=O)N(C)c2cnc(Nc3ccc(C(=O)NC4CCN(C)CC4)cc3OC)nc2N1N(C)C (racemic) [Compound 1, 4-(8-Dimethylamino-7-ethyl-5-methyl-6-oxo-5,6,7,8-tetrahydro-pteridin-2-ylamino)-3-methoxy-N-(1-methyl-piperidin-4-yl)-benzamide]	less than 10%	< 1000 nM	< 1000 nM	< 1000 nM	< 1000 nM	> 1000 nM	< 1000 nM	< 1000 nM	< 1000 nM	< 1000 nM	< 1000 nM	> 1000 nM	< 1000 nM	< 1000 nM
